These results are taken from patent US20240083897A1, “GCN2 MODULATING COMPOUNDS AND USES THEREOF” (HiberCell, Inc., priority 2021, published 2024).

As usually defined, the IC50 is the concentration that gives 50% inhibition.

The test addresses GCN2 (Homo sapiens (Human), UniProt Q9P2K8). The experiment in a line: TR-FRET biochemical assay for inhibition of GCN2. On the technique in general: TR-FRET usually uses a lanthanide donor and a delayed reading to cut background.
The mark [1] stands for this setting: GCN2 2 nM, 100 nM GFP-eIF2a, 150 μM ATP, TR-FRET.

The structures appear in SMILES notation. Where two headings read alike, the source gives them in different places. Bounds are passed on as bounds.

GCN2, sequence (Q9P2K8 whole entry): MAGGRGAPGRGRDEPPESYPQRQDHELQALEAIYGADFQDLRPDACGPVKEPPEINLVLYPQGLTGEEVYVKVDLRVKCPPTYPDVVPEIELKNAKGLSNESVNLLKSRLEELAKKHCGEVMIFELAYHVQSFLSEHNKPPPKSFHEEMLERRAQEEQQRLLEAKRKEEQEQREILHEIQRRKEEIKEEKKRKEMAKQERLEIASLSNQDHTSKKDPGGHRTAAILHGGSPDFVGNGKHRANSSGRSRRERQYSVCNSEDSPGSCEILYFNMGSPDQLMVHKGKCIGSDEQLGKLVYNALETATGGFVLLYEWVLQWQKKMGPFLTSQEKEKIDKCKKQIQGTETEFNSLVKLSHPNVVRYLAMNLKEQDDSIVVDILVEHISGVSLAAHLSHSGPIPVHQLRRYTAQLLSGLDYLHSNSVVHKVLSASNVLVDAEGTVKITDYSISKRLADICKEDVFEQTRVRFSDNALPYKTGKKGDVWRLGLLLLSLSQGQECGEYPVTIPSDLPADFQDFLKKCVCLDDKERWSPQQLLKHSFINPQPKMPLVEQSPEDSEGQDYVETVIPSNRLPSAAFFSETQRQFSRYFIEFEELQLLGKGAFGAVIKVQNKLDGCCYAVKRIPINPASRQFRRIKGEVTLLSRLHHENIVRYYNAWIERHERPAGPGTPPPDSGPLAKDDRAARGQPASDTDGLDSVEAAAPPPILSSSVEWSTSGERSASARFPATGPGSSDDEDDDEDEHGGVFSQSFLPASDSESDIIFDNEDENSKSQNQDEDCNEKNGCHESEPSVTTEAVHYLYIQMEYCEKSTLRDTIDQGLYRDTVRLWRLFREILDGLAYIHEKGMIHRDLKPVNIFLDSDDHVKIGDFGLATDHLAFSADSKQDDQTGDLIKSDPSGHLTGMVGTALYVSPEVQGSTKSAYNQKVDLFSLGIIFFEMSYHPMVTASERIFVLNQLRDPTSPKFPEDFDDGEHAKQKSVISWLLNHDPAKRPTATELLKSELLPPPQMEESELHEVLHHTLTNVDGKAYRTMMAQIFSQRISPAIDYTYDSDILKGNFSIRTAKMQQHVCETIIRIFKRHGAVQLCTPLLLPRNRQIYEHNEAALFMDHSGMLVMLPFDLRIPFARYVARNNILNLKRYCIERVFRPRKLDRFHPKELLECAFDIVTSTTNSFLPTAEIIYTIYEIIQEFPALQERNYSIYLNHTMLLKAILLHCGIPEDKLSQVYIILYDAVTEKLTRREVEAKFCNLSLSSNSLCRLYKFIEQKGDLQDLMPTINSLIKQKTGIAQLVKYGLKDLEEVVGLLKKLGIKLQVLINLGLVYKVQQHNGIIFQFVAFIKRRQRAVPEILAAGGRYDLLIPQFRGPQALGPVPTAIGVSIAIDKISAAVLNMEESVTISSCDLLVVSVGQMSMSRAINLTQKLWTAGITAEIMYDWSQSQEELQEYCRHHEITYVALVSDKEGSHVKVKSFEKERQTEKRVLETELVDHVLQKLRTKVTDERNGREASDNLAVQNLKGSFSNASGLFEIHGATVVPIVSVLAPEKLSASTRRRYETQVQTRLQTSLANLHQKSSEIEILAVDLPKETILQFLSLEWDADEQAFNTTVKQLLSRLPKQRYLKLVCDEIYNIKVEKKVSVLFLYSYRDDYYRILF

As to `COc1ncc(Cl)cc1S(=O)(=O)Nc1ccc(F)c(-c2cn3cnc(C(=O)NCCN4CCCC4=O)c3cn2)c1F` [Compound 180, 6-[3-(5-chloro-2-methoxypyridine-3-sulfonamido)-2,6-difluorophenyl]-N-[2-(2-oxopyrrolidin-1-yl)ethyl]imidazo[1,5-a]pyrazine-1-carboxamide], the concentration for half-maximal inhibition (IC50) lay in the range of 50 to 500 nM. Consider `COc1ncc(C#N)cc1S(=O)(=O)Nc1ccc(F)c([C@H]2CCc3c(-c4nnc(C)[nH]4)ncn3C2)c1F` [Compound 135-2, 5-cyano-N-[2,4-difluoro-3-[(6R)-1-(5-methyl-4H-1,2,4-triazol-3-yl)-5H,6H,7H,8H-imidazo[1,5-a]pyridin-6-yl]phenyl]-2-methoxypyridine-3-sulfonamide], for which the 50% inhibitory concentration (IC50) was 50 to 500 nM. Under setting [1], `COc1ncc(F)cc1S(=O)(=O)Nc1ccc(F)c(-c2ccn3c(-c4ncc[nH]4)ncc3c2F)c1F` [Compound 47, N-[2,4-difluoro-3-[8-fluoro-3-(1H-imidazol-2-yl)imidazo[1,5-a]pyridin-7-yl]phenyl]-5-fluoro-2-methoxypyridine-3-sulfonamide] registered an IC50 of under 50 nM. Still for that read-out and setting: as for `Cc1ncc(F)cc1S(=O)(=O)Nc1ccc(F)c([C@@H]2CCc3c(-c4ncc[nH]4)ncn3C2)c1F` [Compound 80-2, N-[2,4-difluoro-3-[(6S)-1-(1H-imidazol-2-yl)-5H,6H,7H,8H-imidazo[1,5-a]pyridin-6-yl]phenyl]-5-fluoro-2-methylpyridine-3-sulfonamide], the figure is under 50 nM. For `COc1ncc(F)cc1S(=O)(=O)Nc1ccc(F)c(-c2cn3cnc(-c4[nH]cnc4C4CC4)c3cn2)c1F` [Compound 177, N-[3-[1-(5-cyclopropyl-3H-imidazol-4-yl)imidazo[1,5-a]pyrazin-6-yl]-2,4-difluorophenyl]-5-fluoro-2-methoxypyridine-3-sulfonamide], the half-inhibitory concentration (IC50) lay in the range of 50 to 500 nM. The compound `Cc1nnc(-c2ncn3c2CC[C@@H](c2c(F)ccc(NS(=O)(=O)c4cc(Cl)cnc4C)c2F)C3)[nH]1` [Compound 136-1, 5-chloro-N-[2,4-difluoro-3-[(6S)-1-(5-methyl-4H-1,2,4-triazol-3-yl)-5H,6H,7H,8H-imidazo[1,5-a]pyridin-6-yl]phenyl]-2-methylpyridine-3-sulfonamide] gave an IC50 under setting [1] of under 50 nM. The same measure, in the same setting: as for `COc1ncc(Cl)cc1S(=O)(=O)Nc1ccc(F)c(-c2cn3cnc(C(=O)N[C@H]4CCN(C)C4)c3cn2)c1F` [Compound 173-2, (S)-6-(3-((5-chloro-2-methoxypyridine)-3-sulfonamido)-2,6-difluorophenyl)-N-(1-methylpyrrolidin-3-yl)imidazo[1,5-a]pyrazine-1-carboxamide], the figure is under 50 nM; as for `COc1ncc(F)cc1S(=O)(=O)Nc1ccc(F)c(-c2ccc3c(-c4nnc(C)[nH]4)ncn3c2)c1F` [Compound 58, N-[2,4-difluoro-3-[1-(5-methyl-4H-1,2,4-triazol-3-yl)imidazo[1,5-a]pyridin-6-yl]phenyl]-5-fluoro-2-methoxypyridine-3-sulfonamide], under 50 nM. Compound `CNC(=O)c1ncn2c1CC[C@@H](c1c(F)ccc(NS(=O)(=O)c3cc(Cl)cnc3OC)c1F)[C@H]2C` [Compound 96-2, (5R,6S)-6-[3-(5-chloro-2-methoxypyridine-3-sulfonamido)-2,6-difluorophenyl]-N,5-dimethyl-5H,6H,7H,8H-imidazo[1,5-a]pyridine-1-carboxamide] displayed a half-inhibitory concentration (IC50) of 500 to 1000 nM. `CNC(=O)c1ncn2c(C)c(-c3c(F)ccc(NS(=O)(=O)c4cc(Cl)cnc4OC)c3F)ccc12` [Compound 11, 6-[3-(5-chloro-2-methoxypyridine-3-sulfonamido)-2,6-difluorophenyl]-N,5-dimethyl imidazo[1,5-a]pyridine-1-carboxamide] showed a half-maximal inhibitory concentration (IC50) of 50 to 500 nM. Regarding `COc1ncc(Cl)cc1S(=O)(=O)Nc1ccc(F)c(-c2cn3cnc(-c4nnc(C)[nH]4)c3cn2)c1F` [Compound 124, 5-chloro-N-[2,4-difluoro-3-[1-(5-methyl-4H-1,2,4-triazol-3-yl)imidazo[1,5-a]pyrazin-6-yl]phenyl]-2-methoxypyridine-3-sulfonamide], under setting [1], the 50% inhibitory concentration (IC50) is under 50 nM.

The compound `Cc1ncc(F)cc1S(=O)(=O)Nc1ccc(F)c(-c2ccc3c(-c4nc(C#N)c[nH]4)ncn3c2)c1F` [Compound 44, N-[3-[1-(4-cyano-1H-imidazol-2-yl)imidazo[1,5-a]pyridin-6-yl]-2,4-difluorophenyl]-5-fluoro-2-methylpyridine-3-sulfonamide] showed a half-inhibitory concentration (IC50) under setting [1] of under 50 nM. With `COc1ncc(F)cc1S(=O)(=O)Nc1ccc(Cl)c(-c2cn3cnc(-c4ncc[nH]4)c3cn2)c1F` [Compound 142, N-[4-chloro-2-fluoro-3-[1-(1H-imidazol-2-yl)imidazo[1,5-a]pyrazin-6-yl]phenyl]-5-fluoro-2-methoxypyridine-3-sulfonamide], the IC50 under setting [1] is under 50 nM.

In turn, `COc1ncc(C#N)cc1S(=O)(=O)Nc1ccc(F)c(-c2ccc3c(-c4nc5c([nH]4)CCCC5)ncn3c2)c1F` [Compound 123, 5-cyano-N-[2,4-difluoro-3-[1-(4,5,6,7-tetrahydro-1H-1,3-benzodiazol-2-yl)imidazo[1,5-a]pyridin-6-yl]phenyl]-2-methoxypyridine-3-sulfonamide] yielded a half-inhibitory concentration (IC50) under setting [1] of under 50 nM. Still for that read-out and setting: as for `COc1ncc(Cl)cc1S(=O)(=O)Nc1ccc(F)c(-c2ccc3c(-c4ncc(C)[nH]4)ncn3c2)c1F` [Compound 48, 5-chloro-N-[2,4-difluoro-3-[1-(4-methyl-3H-imidazol-2-yl)imidazo[1,5-a]pyridine-6-yl]phenyl]-2-methoxypyridine-3-sulfonamide], the figure is under 50 nM. With `COc1ncc(Cl)cc1S(=O)(=O)Nc1ccc(F)c([C@H]2Cn3cnc(-c4ncc[nH]4)c3CN2C)c1F` [Compound 73-2, 5-chloro-N-[2,4-difluoro-3-[(6S)-1-(1H-imidazol-2-yl)-7-methyl-5H,6H,8H-imidazo[1,5-a]pyrazin-6-yl]phenyl]-2-methoxypyridine-3-sulfonamide], the IC50 fell in the range of 50 to 500 nM. Under setting [1], `COc1ncc(Cl)cc1S(=O)(=O)Nc1ccc(F)c(-c2ccc3c(-c4ccn(C)n4)ncn3c2)c1F` [Compound 37, 5-chloro-N-[2,4-difluoro-3-[1-(1-methylpyrazol-3-yl)imidazo[1,5-a]pyridin-6-yl]phenyl]-2-methoxypyridine-3-sulfonamide] had a half-maximal inhibitory concentration (IC50) of under 50 nM.

Under setting [1], `CNC(=O)c1ncn2nc(-c3c(F)ccc(NS(=O)(=O)c4cc(Cl)cnc4C)c3Cl)ccc12` [Compound 139, 2-[2-chloro-3-(5-chloro-2-methylpyridine-3-sulfonamido)-6-fluorophenyl]-N-methylimidazo[1,5-b]pyridazine-5-carboxamide] showed an IC50 of under 50 nM. Under setting [1], `COc1ncc(Cl)cc1S(=O)(=O)Nc1ccc(F)c(-c2cn3cnc(-c4ncc[nH]4)c3cn2)c1F` [Compound 31, 5-chloro-N-[2,4-difluoro-3-[1-(1H-imidazol-2-yl)imidazo[1,5-a]pyrazin-6-yl]phenyl]-2-methoxypyridine-3-sulfonamide] displayed a concentration for half-maximal inhibition (IC50) of under 50 nM. Same read-out and setting: as for `CNC(=O)c1ncn2cc(-c3c(F)ccc(NS(=O)(=O)c4cc(F)cc5c4CCC5O)c3F)ccc12` (stereo not shown) [Compound 10, 6-[2,6-difluoro-3-(6-fluoro-1-hydroxy-2,3-dihydro-1H-indene-4-sulfonamido)phenyl]-N-methylimidazo[1,5-a]pyridine-1-carboxamide], the figure is under 50 nM; as for `COc1ncc(F)cc1S(=O)(=O)Nc1ccc(F)c(-c2ccc3c(-c4nc5ccc(N6CCN(C)CC6)cc5[nH]4)ncn3c2)c1F` [Compound 185, N-(2,4-difluoro-3-[1-[5-(4-methylpiperazin-1-yl)-3H-1,3-benzodiazol-2-yl]imidazo[1,5-a]pyridin-6-yl]phenyl)-5-fluoro-2-methoxypyridine-3-sulfonamide], under 50 nM; as for `COc1ncc(Cl)cc1S(=O)(=O)Nc1ccc(F)c(-c2cn3cnc(C(=O)NC(C)C)c3cn2)c1F` [Compound 157, 6-[3-(5-chloro-2-methoxypyridine-3-sulfonamido)-2,6-difluorophenyl]-N-isopropylimidazo[1,5-a]pyrazine-1-carboxamide], under 50 nM. Regarding `CNC(=O)c1ncn2cc(-c3c(F)ccc(NS(=O)(=O)c4cc(C#N)cc(C(F)(F)F)c4)c3F)ccc12` [Compound 23, 6-[3-[3-cyano-5-(trifluoromethyl)benzenesulfonamido]-2,6-difluorophenyl]-N-methylimidazo[1,5-a]pyridine-1-carboxamide], the IC50 is 50 to 500 nM.

In turn, `COc1ncc(C#N)cc1S(=O)(=O)Nc1ccc(F)c([C@H]2CCc3c(-c4ncc[nH]4)ncn3C2)c1F` [Compound 82-1, 5-cyano-N-[2,4-difluoro-3-[(6R)-1-(1H-imidazol-2-yl)-5H,6H,7H,8H-imidazo[1,5-a]pyridin-6-yl]phenyl]-2-methoxypyridine-3-sulfonamide] had a 50% inhibitory concentration (IC50) of 50 to 500 nM. `COc1ncc(Cl)cc1S(=O)(=O)Nc1ccc(F)c([C@@H]2CCc3c(-c4nnc(C)[nH]4)ncn3C2)c1F` [Compound 130-1, 5-chloro-N-[2,4-difluoro-3-[(6S)-1-(5-methyl-4H-1,2,4-triazol-3-yl)-5H,6H,7H,8H-imidazo[1,5-a]pyridin-6-yl]phenyl]-2-methoxypyridine-3-sulfonamide] came in with a 50% inhibitory concentration (IC50) under setting [1] of under 50 nM. The compound `CNC(=O)c1ncn2c1CC[C@H](c1c(F)ccc(NS(=O)(=O)c3cc(Cl)cnc3OC)c1F)[C@@H]2C` [Compound 96-1, (5S,6R)-6-[3-(5-chloro-2-methoxypyridine-3-sulfonamido)-2,6-difluorophenyl]-N,5-dimethyl-5H,6H,7H,8H-imidazo[1,5-a]pyridine-1-carboxamide] came in with a half-inhibitory concentration (IC50) of 50 to 500 nM. With `COc1ncc(Cl)cc1S(=O)(=O)Nc1ccc(F)c(-c2cn3cnc(C(=O)NCC4CC4)c3cn2)c1F` [Compound 166, 6-[3-(5-chloro-2-methoxypyridine-3-sulfonamido)-2,6-difluorophenyl]-N-(cyclopropylmethyl)imidazo[1,5-a]pyrazine-1-carboxamide], under setting [1], the concentration for half-maximal inhibition (IC50) is under 50 nM. Same read-out and setting: as for `COc1ncc(Cl)cc1S(=O)(=O)Nc1ccc(F)c(-c2ccc3c(-c4nc(C)c(C)[nH]4)ncn3c2)c1F` [Compound 143, 5-chloro-N-(3-(1-(4,5-dimethyl-1H-imidazol-2-yl)imidazo[1,5-a]pyridin-6-yl)-2,4-difluorophenyl)-2-methoxypyridine-3-sulfonamide], the figure is under 50 nM.
